Molecular target: T1, recombinant alpha-glucosidase I (human full-length glucosidase I, Glu 1) (Homo sapiens, UniProt Q13724)
T1 construct: 6-His (C); made in house; host or cells: HEK-293T cells transduced with BacMam virus (virus raised in Sf9)
T1 sequence (Q13724 1-837): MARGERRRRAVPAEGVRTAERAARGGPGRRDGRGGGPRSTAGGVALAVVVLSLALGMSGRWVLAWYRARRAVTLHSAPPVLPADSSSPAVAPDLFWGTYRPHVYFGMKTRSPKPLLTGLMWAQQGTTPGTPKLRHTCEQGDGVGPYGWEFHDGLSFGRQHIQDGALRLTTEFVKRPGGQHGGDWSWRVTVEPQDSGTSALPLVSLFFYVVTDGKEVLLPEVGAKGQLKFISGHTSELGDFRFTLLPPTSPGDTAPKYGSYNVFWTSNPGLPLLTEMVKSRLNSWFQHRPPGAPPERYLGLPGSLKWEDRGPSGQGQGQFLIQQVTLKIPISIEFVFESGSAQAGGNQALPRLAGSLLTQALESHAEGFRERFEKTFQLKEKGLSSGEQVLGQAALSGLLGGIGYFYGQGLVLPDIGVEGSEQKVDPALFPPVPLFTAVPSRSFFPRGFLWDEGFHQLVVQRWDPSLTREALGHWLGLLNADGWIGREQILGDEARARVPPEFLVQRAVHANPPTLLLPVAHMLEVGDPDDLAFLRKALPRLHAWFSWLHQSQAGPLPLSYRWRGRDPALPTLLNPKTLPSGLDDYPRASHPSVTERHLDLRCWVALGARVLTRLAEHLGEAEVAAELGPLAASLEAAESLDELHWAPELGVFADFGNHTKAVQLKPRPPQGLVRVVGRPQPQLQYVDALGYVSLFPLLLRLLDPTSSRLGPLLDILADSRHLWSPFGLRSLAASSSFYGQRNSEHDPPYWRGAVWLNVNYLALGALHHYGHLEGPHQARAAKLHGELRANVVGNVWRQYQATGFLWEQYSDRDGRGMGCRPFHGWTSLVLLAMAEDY
Test: Alpha-glucosidase I assay (Amplex Red glucose detection, synthetic trisaccharide substrate)
Type: biochemical
Conditions: Glucosidase 1; read-out: Glu 1 IC50
Outline: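 Human full-length glucosidase I, His-tagged, […] and Ni-purified. Enzyme preincubated with compound dilutions 60 min at 37° C, then synthetic trisaccharide substrate 90 min at 37° C; stopped with 1.5M Tris pH 8.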

SMILES	IC50 [nM]
O=[N+]([O-])c1cc(Br)ccc1NCc1ccc(CN2C[C@H](O)[C@@H](O)[C@H](O)[C@H]2CO)cc1 [Compound 1030, (2R,3R,4R,5S)-1-[(4-{[(4-bromo-2-nitrophenyl)amino]methyl}phenyl)methyl]-2-(hydroxymethyl)piperidine-3,4,5-triol]	< 1
Cc1cc(-c2ncccn2)ccc1NCCCCCCN1C[C@H](O)[C@@H](O)[C@H](O)[C@H]1CO [Compound 1233, (2R,3R,4R,5S)-2-(hydroxymethyl)-1-(6-{[2-methyl-4-(pyrimidin-2-yl)phenyl]amino}hexyl)piperidine-3,4,5-triol]	123
[N-]=[N+]=Nc1ccc(N2CCN(CCN3C[C@H](O)[C@@H](O)[C@H](O)[C@H]3CO)CC2)c([N+](=O)[O-])c1 [Compound 1254, (2R,3R,4R,5S)-1-{2-[4-(4-azido-2-nitrophenyl)piperazin-1-yl]ethyl}-2-(hydroxymethyl)piperidine-3,4,5-triol]	6770
COc1ccc(-c2ccc(CN3C[C@H](O)[C@@H](O)[C@H](O)[C@H]3CO)cc2)cc1 [Compound 1306, (2R,3R,4R,5S)-2-(hydroxymethyl)-1-({4′-methoxy-[1,1′-biphenyl]-4-yl}methyl)piperidine-3,4,5-triol]	745
N#Cc1cc(NCc2cccc(CN3C[C@H](O)[C@@H](O)[C@H](O)[C@H]3CO)c2)cc(N2CCOCC2)c1 [Compound 1042, 3-(morpholin-4-yl)-5-{[(3-{[(2R,3R,4R,5S)-3,4,5-trihydroxy-2-(hydroxymethyl)piperidin-1-yl]methyl}phenyl)methyl]amino}benzonitrile]	30
OC[C@@H]1[C@@H](O)[C@H](O)[C@@H](O)CN1Cc1cnc(CNc2cc(-c3ncccn3)cc(C3CC3)c2)cn1 [Compound 1329, (2R,3R,4R,5S)-1-{[5-({[3-cyclopropyl-5-(pyrimidin-2-yl)phenyl]amino}methyl)pyrazin-2-yl]methyl}-2-(hydroxymethyl)piperidine-3,4,5-triol]	1870
CS(C)=NS(=O)(=O)c1cc(-c2ncccn2)ccc1NCCCCCCN1C[C@H](O)[C@@H](O)[C@H](O)[C@H]1CO [Compound 1247, N-(dimethyl-2-sulfanylidene)-5-(pyrimidin-2-yl)-2-({6-[(2R,3R,4R,5S)-3,4,5-trihydroxy-2-(hydroxymethyl)piperidin-1-yl]hexyl}amino)benzene-1-sulfonamide]	493
OC[C@@H]1[C@@H](O)[C@H](O)[C@@H](O)CN1CCCCCCNc1cc(Cl)cc(-c2ncco2)c1 [Compound 1211, (2R,3R,4R,5S)-1-(6-{[3-chloro-5-(1,3-oxazol-2-yl)phenyl]amino}hexyl)-2-(hydroxymethyl)piperidine-3,4,5-triol]	112
COc1ccc(C#CCCCCCN2C[C@H](O)[C@@H](O)[C@H](O)[C@H]2CO)cc1 [Compound 1338, (2R,3R,4R,5S)-2-(hydroxymethyl)-1-[7-(4-methoxyphenyl)hept-6-yn-1-yl]piperidine-3,4,5-triol]	999
CN(Cc1cccc(CN2C[C@H](O)[C@@H](O)[C@H](O)[C@H]2CO)c1)c1ccc(CN2CCCO2)cc1[N+](=O)[O-] [Compound 1020]	118
COc1cc(-c2ncccn2)ccc1NCCCCCCN1C[C@H](O)[C@@H](O)[C@H](O)[C@H]1CO [Compound 1231, (2R,3R,4R,5S)-2-(hydroxymethyl)-1-(6-{[2-methoxy-4-(pyrimidin-2-yl)phenyl]amino}hexyl)piperidine-3,4,5-triol]	187
Cc1nc(=O)c2cc(-c3ncccn3)ccc2n1CCCCCCN1C[C@H](O)[C@@H](O)[C@H](O)[C@H]1CO [Compound 1246, 2-methyl-6-(pyrimidin-2-yl)-1-{6-[(2R,3R,4R,5S)-3,4,5-trihydroxy-2-(hydroxymethyl)piperidin-1-yl]hexyl}-1,4-dihydroquinazolin-4-one]	112
OC[C@@H]1[C@@H](O)[C@H](O)[C@@H](O)CN1Cc1cccc(CNc2cc(-c3ncccn3)cc(C3CC3)c2)n1 [Compound 1333, (2R,3R,4R,5S)-1-{[6-({[3-cyclopropyl-5-(pyrimidin-2-yl)phenyl]amino}methyl)pyridin-2-yl]methyl}-2-(hydroxymethyl)piperidine-3,4,5-triol]	4530
Cc1cc(NCc2cccc(CN3C[C@H](O)[C@@H](O)[C@H](O)[C@H]3CO)n2)cc(N2CCOCC2)c1 [Compound 1336, (2R,3R,4R,5S)-2-(hydroxymethyl)-1-{[6-({[3-methyl-5-(morpholin-4-yl)phenyl]amino}methyl)pyridin-2-yl]methyl}piperidine-3,4,5-triol]	30300
Cc1cc(NCc2ccc(CN3C[C@H](O)[C@@H](O)[C@H](O)[C@H]3CO)cc2)cc(-c2ccco2)c1 [Compound 1317, (2R,3R,4R,5S)-1-{[4-({[3-(furan-2-yl)-5-methylphenyl]amino}methyl)phenyl]methyl}-2-(hydroxymethyl)piperidine-3,4,5-triol]	< 1
[N-]=[N+]=Nc1ccc(NCCN2CCN(CCN3C[C@H](O)[C@@H](O)[C@H](O)[C@H]3CO)CC2)c([N+](=O)[O-])c1 [Compound 1273, (2R,3R,4R,5S)-1-[2-(4-{2-[(4-azido-2-nitrophenyl)amino]ethyl}piperazin-1-yl)ethyl]-2-(hydroxymethyl)piperidine-3,4,5-triol]	13000
COc1ccc(-c2ccc(CCCN3C[C@H](O)[C@@H](O)[C@H](O)[C@H]3CO)cc2)cc1 [Compound 1305, (2R,3R,4R,5S)-2-(hydroxymethyl)-1-(3-{4′-methoxy-[1,1′-biphenyl]-4-yl}propyl)piperidine-3,4,5-triol]	2830
OC[C@@H]1[C@@H](O)[C@H](O)[C@@H](O)CN1Cc1cccc(CNc2ccc(Br)cc2)c1 [Compound 1027, (2R,3R,4R,5S)-1-[(3-{[(4-bromophenyl)amino]methyl}phenyl)methyl]-2-(hydroxymethyl)piperidine-3,4,5-triol]	22
Cc1cc(Br)cc(NCc2cccc(CN3C[C@H](O)[C@@H](O)[C@H](O)[C@H]3CO)c2)c1 [Compound 1021, (2R,3R,4R,5S)-1-[(3-{[(3-bromo-5-methylphenyl)amino]methyl}phenyl)methyl]-2-(hydroxymethyl)piperidine-3,4,5-triol]	6
N#CCc1ccc(NCCCCCCN2C[C@H](O)[C@@H](O)[C@H](O)[C@H]2CO)c([N+](=O)[O-])c1 [Compound 1299, 2-[3-nitro-4-({6-[(2R,3R,4R,5S)-3,4,5-trihydroxy-2-(hydroxymethyl)piperidin-1-yl]hexyl}amino)phenyl]acetonitrile]	189
OC[C@@H]1[C@@H](O)[C@H](O)[C@@H](O)CN1CCCCCCCCC1CNCCO1 (stereo partly drawn) [Compound 1311, (2R,3R,4R,5S)-2-(hydroxymethyl)-1-[8-(morpholin-2-yl)octyl]piperidine-3,4,5-triol]	1760
COc1cc(NCCCCCCN2C[C@H](O)[C@@H](O)[C@H](O)[C@H]2CO)cc(-c2ncc[nH]2)c1 [Compound 1219, (2R,3R,4R,5S)-2-(hydroxymethyl)-1-(6-{[3-(1H-imidazol-2-yl)-5-methoxyphenyl]amino}hexyl)piperidine-3,4,5-triol]	93
CN(C)Cc1ccc(NCCCCCCN2C[C@H](O)[C@@H](O)[C@H](O)[C@H]2CO)c(C#N)c1 [Compound 1257, 5-[(dimethylamino)methyl]-2-({6-[(2R,3R,4R,5S)-3,4,5-trihydroxy-2-(hydroxymethyl)piperidin-1-yl]hexyl}amino)benzonitrile]	115
O=S(=O)(Nc1cc(-c2ncccn2)ccc1NCCCCCCN1C[C@H](O)[C@@H](O)[C@H](O)[C@H]1CO)C1CC1 [Compound 1227, N-[5-(pyrimidin-2-yl)-2-({6-[(2R,3R,4R,5S)-3,4,5-trihydroxy-2-(hydroxy-methyl)piperidin-1-yl]hexyl}amino)phenyl]cyclopropanesulfonamide]	169
Nc1ccc(NCCn2cc(CCN3C[C@H](O)[C@@H](O)[C@H](O)[C@H]3CO)nn2)c([N+](=O)[O-])c1Cl [Compound 1253, (2R,3R,4R,5S)-1-[2-(1-{2-[(4-amino-3-chloro-2-nitrophenyl)amino]ethyl}-1H-1,2,3-triazol-4-yl)ethyl]-2-(hydroxymethyl)piperidine-3,4,5-triol]	1750
[N-]=[N+]=Nc1ccc(NCCCCCCN2C[C@H](O)[C@@H](O)[C@H](O)[C@H]2CO)c(C(N)=O)c1 [Compound 1296, 5-azido-2-({6-[(2R,3R,4R,5S)-3,4,5-trihydroxy-2-(hydroxymethyl)piperidin-1-yl]hexyl}amino)benzamide]	142
COCCc1ccc(CCCN2C[C@H](O)[C@@H](O)[C@H](O)[C@H]2CO)cc1 [Compound 1308, (2R,3R,4R,5S)-2-(hydroxymethyl)-1-{3-[4-(2-methoxyethyl)phenyl]propyl}piperidine-3,4,5-triol]	> 100000

Reference: patent US20250197372A1 (priority 2020, published 2025)
